Data reported in US10736880B2, “Therapeutics for preterm labor management” (THE BOARD OF REGENTS OF THE UNIVERSITY OF TEXAS SYSTEM, priority 2015, dated 2020).
Values joined by “and” are separate entries in the source; they are usually repeats but may differ in a detail not shown here. Equal entries are not always repeated. Where a SMILES comes first, the peptide text is derived from it. Bridges are numbered along the chain shown (N, C = ends). [ ]: non-standard residue; d: D form. Orn = NCCC[C@H](N)C(=O)O; Mpa = O=C(O)CCS

Columns and labels:
[1] = Indomethacin levels in uterus, placenta and fetus after IND or LIP-IND (Example 1); assay type: in vivo, pregnant mouse; details: four hours following administration, mean ± sem; for concentration at 4 h: female, mouse
Prostaglandin E2 (PGE2) [2] = assay: PGE2 levels in uterine tissue after administration (Example 1); assay type: in vivo, pregnant mouse; details: four hours following administration
[3] = IND concentrations in maternal uterus and fetus by LC-MS/MS; assay type: in vivo, pregnant CD1 mice; details: female, CD1, mouse, intravenous, 1 mg/kg
Protocol: Biodistribution study in vivo. […] The in vivo doses were maintained across the study. After 4 h, pregnant mice were sacrificed by CO2 inhalation, followed by laparotomy to retrieve maternal liver, uteri, placentas and fetuses. The onset of action of LIP-IND-ORA is unknown when administered intravenously. […] Based on these prior studies, 4 h was chosen as the period of exposure.
Uterine and fetal tissues were homogenized in 1 mL of ice-cold methanol/water (7:3 v/v). Phenacetin (final concentration 20 ng/mL) was added to each sample before centrifugation at 15,000 rpm for 10 min. Supernatant was dried under nitrogen and reconstituted in 0.1% formic acid aqueous solution followed by protein precipitation with acetonitrile (1:2). Samples were centrifuged again, supernatant was transferred to vial and 10 μL was injected to Shimadzu triple quad 8040 MS connected to LC system. […] Method parameters were: LOD=3.9 ng/mL (accuracy 76%, S/N>3); LOQ=15.6 ng/mL (accuracy 85%; CV<10%; S/N>10) with correlation coefficient for linear regression R2=0.992.

[4] = test system: uterus isolated from pregnant mice; assay: Uterine contractility ex vivo, pregnant mouse; details: absence of oxytocin, 40 min incubation, IND 10-5 mol/L, n=6, mean±SEM
Text: (§1) Uterine contractility ex vivo. An established ex vivo pregnant mouse or human models of uterine contractility was used to measure the ability of LIP-IND-ORA to inhibit uterine contractions. For mice, on GD19, timed-pregnant animals (N=6) underwent CO2 inhalation euthanasia, the maternal uteri were excised and placed into Krebs physiological solution. In the case of human tissue, strips from uterine biopsies obtained at cesarean section from non-laboring, term, healthy women were used. Uterine ring segments, 4 mm in width, were cut, and the fetuses and placentas were gently removed. […]
(§2) Changes in isometric tension were recorded with isometric force transducers (Harvard Apparatus, South Natik, Mass.) connected and stored to an online computer with data acquisition software (WINDAQ-200; DATAQ). The data was acquired and analyzed using Windaq data acquisition system (Dataq Instruments Inc, Akron, Ohio). Spontaneous contractile activity for each uterine ring was analyzed as an integral activity over 40 min before (basal activity) and after application of each study drug. […] OXY induced contractile response was expressed as an integral activity over 20 min of each OXY dose and the baseline uterine contractility54,55,56. […] Data was expressed as mean±SEM.

[5] = test system: strips from uterine biopsies obtained at cesarean section; assay: Human myometrial contractility study (organ bath); details: highest concentration of 10^−6
Text: as §1, §2

prostaglandin E2 (PGE2) [6] = assay: PGE2 in uterine tissue incubated ex vivo, ELISA; design: species or system mouse; details: 40 min incubation, mean±SEM
Protocol: Another set of pregnant CD1 mice at GD 19 (n=5) was used to evaluate uterus PGE2 levels. […] PGE2 levels in each sample were then determined based on the instructions in the ELISA kit (ADI-901-001, Enzo Life Science, New York, USA). The concentration of PGE2 were expressed as pg/mL and reported as the mean±SEM.

[7] = test system: LPS-induced preterm birth; assay: LPS-induced preterm birth in vivo; design: species or system pregnant CD1 mice; details: IND 1 mg/kg daily tail vein
Protocol: Preterm birth in vivo. The established in vivo preterm pregnant mouse model was used to test the ability of LIP-IND-ORA to prevent preterm birth. LPS is a commonly used model to induce labor in murine models. On GD 16, timed-pregnant CD1 mice were administered lipopolysaccharide (LPS, Sigma, USA) (25 μg/kg) via intraperitoneal injection. […] Since the LIP-IND-ORA solution color was visibly pink and due to limited resources to create a placebo, the randomization was not blinded. Each day after the LPS administration, the preterm birth rate was determined as the number of pregnant mice spontaneously delivering prior to GD18. Animals were housed in single cages and were monitored by either direct observation or by video camera for the duration of the treatment period to confirm timing of delivery. The rate of preterm birth was expressed as percent and length of pregnancy after LPS administration was expressed in hours. Results were reported as median±sem.

preterm birth = details: prior experiments, 90% in control; cited from earlier work
[8] = ORA levels in maternal organs by LC-MS/MS; assay type: in vivo, pregnant mice; details: after LIP-IND-ORA
Text: To enable faster clinical translation of the proposed approach, a clinically used^33 oxytocin receptor antagonist (ORA, or atosiban) was used as the targeting element. […] Thus, the goal of using ORA as a safe targeting moiety for pregnant women was successfully in delivering indomethacin to the uterus directly. The principles of nanomedicine have been applied to optimize tocolytics for the treatment of preterm labor, and the novel drug delivery system can provide a path for a new paradigm-shifting direction to advance the field of obstetrics.

concentration at 4 h ([1]; fetus) [ng/g]	concentration at 4 h ([1]; placenta) [ng/g]	concentration at 4 h ([1]; uterus) [ng/g]	Indomethacin level normalized per weight, fetus [1] [ng/g]	concentration at 4 h ([3]; fetus) [ng/g]	concentration at 4 h ([3]; uterus) [ng/g]	Compound	PGE2 levels in the uterus (Prostaglandin E2 (PGE2) [2]) [pg/mL]	percent inhibition of uterine contractions [4]	percent uterine contractions [5] [%]	PGE2 levels in the uterus exposed ex vivo (prostaglandin E2 (PGE2) [6])	length of pregnancy after LPS administration [7] [h]	rate of LPS-induced preterm birth ([7]; delivery prior to GD18) [%]	rate of preterm birth (preterm birth) [%]	ORA levels in the maternal organs [8]
81.3 ± 24.7	650 ± 78.4	237 ± 21.6	81.3 ± 24.7	245 ± 61.7	965 ± 312	COc1ccc2c(c1)c(CC(=O)O)c(C)n2C(=O)c1ccc(Cl)cc1 [IND, indomethacin]	493.3 ± 89.0	34.3±6.6% and 34.3±5.9%	67.2±8.4	2,587.4±676.5 pg/mL	30.0 ± 4.9	54.5	30	
						CCOc1ccc(C[C@H]2NC(=O)CCSSC[C@@H](C(=O)N3CCC[C@H]3C(=O)N[C@@H](CCCN)C(=O)NCC(N)=O)NC(=O)[C@H](CC(N)=O)NC(=O)[C@H]([C@@H](C)O)NC(=O)[C@H]([C@@H](C)CC)NC2=O)cc1 [ORA, atosiban] ([Mpa][dY](Et)ITNCP[Orn]G-NH2; disulfide 1-6)								not detectable
